Reference: patent US8012950B2, “Method to diagnose and treat degenerative joint disease” (Wisconsin Alumni Research Foundation, priority 2003, dated 2011)

Key:
[1] = target: T1, recombinant human MMP-13 (collagenase 3) (Homo sapiens, UniProt P45452); test: Matrix metalloproteinase-13 inhibition assay; type: biochemical; details: at 1 mM concentrations
T1 construct: purchased Chondrex, Inc., Redmond, Wash; Cat. No. 3003
Experimental: Matrix Metalloproteinase-13 Inhibition Assay: The MMP-13 (collagenase 3) inhibition assay used a commercially available kit (Chondrex, Inc., Redmond, Wash., Cat. No. 3003) The recombinant human MMP-13 (collagenase 3) was activated by adding 5 μl of a 10 μg/ml solution of recombinant human MMP-13, 90 μl of sample dilution and reaction buffer (Solution B), and 5 μl of p-aminophenylmercuric acetate to each well of a microplate. The microplate was then incubated for 60 minutes at 35° C. Ten microliters of proteinase inhibitor was then added to each well to neutralize non-collagenolytic proteases in the sample solutions. Twenty five microliters of doxycycline, tetracycline, minocycline, COL-3, NPI-3469 (dissolved in buffer as previously described) and 25 μl of solution B were added to each well. Concentrations of the candidate inhibiting compounds in the initial mixture were prepared at 10^−7 to 10^−3 M using solution B. After the microplate was incubated at approximately 25° C. for 30 minutes, 10 μl of stop solution was added to each well and the fluorescence of each well was then determined using a fluorescent microplate reader set at 360 nm excitation/460nm emission. Data Analysis: The residual collagenolytic enzyme activity as a percentage of the control was calculated for each concentration of each inhibiting compound. All dilutions of each inhibiting compound were assayed in duplicate and a mean value was calculated for each well.

[2] = target: T2, recombinant human cathepsin K (Homo sapiens, UniProt P43235); test: Cathepsin K inhibition assay; type: biochemical
T2 sequence (P43235 115-329): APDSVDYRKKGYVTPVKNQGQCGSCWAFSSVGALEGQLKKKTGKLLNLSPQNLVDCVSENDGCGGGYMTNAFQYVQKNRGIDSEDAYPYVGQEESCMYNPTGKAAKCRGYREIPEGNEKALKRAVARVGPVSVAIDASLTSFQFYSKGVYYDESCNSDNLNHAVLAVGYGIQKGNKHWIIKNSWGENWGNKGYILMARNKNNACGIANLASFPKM
Experimental: Cathepsin K Inhibition Assay: The cathepsin K inhibition assay was modified from a previously described protocol (Votta et al., 1997). Doxycycline, tetracycline and minocycline were dissolved in 0.1 M Tris/0.15M NaCl buffer, pH 7.4. COL-3 was dissolved in 100% ethanol. NPI-3469 was dissolved in dimethylsulphoxide. Ten microliters of doxycycline, tetracycline, minocycline, COL-3, and NPI-3469 were dissolved in buffer and an equal volume of 0.125 μM rh-human cathepsin K standard dissolved in 100 mM sodium acetate buffer, pH 5.5 were mixed in a 96-well microplate and incubated at approximately 25° C. (room temperature) for 15 minutes. Concentrations of the candidate inhibiting compound in the initial mixture were prepared at 10^-7 to 10^-3M. Then 180 μl of an MCA substrate buffer containing 100 mM sodium acetate buffer pH 5.5, 2.5 mM dithiothreitol, 2.5 mM EDTA, and 5 μ[…] substrate (Peptides International, Louisville, KY) was added to the mixture. The microplate was incubated for 60 minutes at approximately 25° C. The fluorescence of each well was then determined using a fluorescent microplate reader set at 360 nm excitation/460 nm emission. Data Analysis: The residual collagenolytic enzyme activity as a percentage of the control was calculated for each concentration of each inhibiting compound. All dilutions of each inhibiting compound were assayed in duplicate and a mean value was calculated for each well.

[3] = Pharmacokinetic study of oral NPI 3469 in the dog; type: in vivo; details: 4 beagles, single oral dose 1 mg/kg
Experimental: Pharmacokinetics of oral NPI 3469 (NAEJA Pharmaceuticals, Edmonton, Alberta, Canada) in the dog. We have conducted a pharmokinetic study in 4 beagles using a single oral dose of NPI 3469 given at 1 mg/kg and pharmacokinetic parameters have been determined.

Compound	inhibition of matrix metalloproteinase-13 [1]	inhibition of cathepsin K ([2]; at 1 μm)	inhibition of cathepsin K ([2]; at 10 μm)	inhibition of matrix metalloproteinase-13 (in words) [1]	adverse effects during the treatment period [3]
NC(=O)C1=C(O)CC2CC3Cc4cccc(O)c4C(=O)C3=C(O)C2(O)C1=O (stereo not shown) [COL-3, 4-dedimethylaminosancycline]	57%	25%	56%	–	–
CC(C)C[C@H](NC(=O)OCc1ccccc1)C(=O)NC1=CNC2(CCCC2)NC1=O [NPI-3469, 5-(carbobenzoxy-L-leucyl)amino-2,2-tetramethylene-2,3-dihydro-1H-pyrimidin-4-one]	–	47%	75%	did not inhibit	No adverse effects
CN(C)[C@@H]1C(O)=C(C(N)=O)C(=O)[C@@]2(O)C(O)=C3C(=O)c4c(O)cccc4[C@@](C)(O)[C@H]3C[C@@H]12 [tetracycline]	49%	–	–	–	–

More lines, main results first:

inhibition of matrix metalloproteinase-13 [1]	inhibition of cathepsin K ([2]; at 1 μm)	inhibition of cathepsin K ([2]; at 10 μm)	inhibition of matrix metalloproteinase-13 (in words) [1]	Compound	adverse effects during the treatment period [3]
–	–	–	did not inhibit	C[C@H]1c2cccc(O)c2C(=O)C2=C(O)[C@]3(O)C(=O)C(C(N)=O)=C(O)[C@@H](N(C)C)[C@@H]3[C@@H](O)[C@@H]21 [doxycycline]	–
85%	–	–	–	CN(C)c1ccc(O)c2c1C[C@H]1C[C@H]3[C@H](N(C)C)C(O)=C(C(N)=O)C(=O)[C@@]3(O)C(O)=C1C2=O [minocycline]	–
